{
  "source": "a melting point compilation (Tetko et al.; mined from patent text by program, amines drawn as free bases though some values may be those of a salt)",
  "data": [
    {"units": {"melting point": "°C"}, "values": [
      {"smiles": "CCN(C)c1nc2cc(-c3ccccc3)nnc2c2ccccc12", "melting point": "130 to 133"},
      {"smiles": "CCN(CC)c1ccc(C2(c3ccc(N(C)C)cc3N(C)C)OC(=O)c3c(Cl)c(Cl)c(Cl)c(Cl)c32)c(C)c1", "note": "(stereo unspecified)", "melting point": "236 to 238"},
      {"smiles": "O=C(NCCc1ccc(F)cc1)c1ccc(S(=O)(=O)Nc2ccccc2C(=O)O)cc1", "melting point": "85 to 86"},
      {"smiles": "CCCCCc1ccc(Br)nn1", "melting point": "31 to 32"},
      {"smiles": "Cc1ccc2cccc(OCc3c(Cl)ccc(N(C)C(=O)CNC(=O)CN4CCN(c5ccc([N+](=O)[O-])cc5)CC4)c3Cl)c2n1", "melting point": "178 to 181"},
      {"smiles": "O=S1(=O)c2cccc3cccc(c23)N1CCCCN1CCN(c2noc3ccccc23)CC1", "melting point": 138},
      {"smiles": "CCCN(C)C(C)CN1CCc2c(c(=O)oc3cc(OC)c(OC)cc23)C1", "note": "(stereo unspecified)", "melting point": "81 to 85"},
      {"smiles": "OC1CSC(Oc2cnccc2-c2ccc(C(F)(F)F)cc2)C(O)C1O", "note": "(stereo unspecified)", "melting point": 204},
      {"smiles": "O=C(O)[C@H](Cc1cccs1)NN1C(=O)c2ccccc2C1=O", "melting point": "166 to 168"},
      {"smiles": "CCCNC(=O)C(C#N)=C(SC)SC", "melting point": "65 to 66"},
      {"smiles": "c1ccc(Sc2cc3cc4cc5ccccc5cc4cc3cc2Sc2ccccc2)cc1", "melting point": "> 260"},
      {"smiles": "CN1C(C)(C)CC(C(O)CNc2nc(Cl)nc(NCC(O)C3CC(C)(C)N(C)C(C)(C)C3)n2)CC1(C)C", "note": "(stereo unspecified)", "melting point": "166 to 176"},
      {"smiles": "CC(C(=O)O)c1ccc2c(c1)Cc1cccnc1S2", "note": "(stereo unspecified)", "melting point": "203 to 204"},
      {"smiles": "CC(=O)c1c[nH]c(C)n1", "melting point": "124 to 127"},
      {"smiles": "CCC(C)(C)C(=O)Oc1cccc2ccc(OCCOc3ccc(C(=O)C(=O)O)cc3)cc12", "melting point": "167 to 168"},
      {"smiles": "CCc1nc2ccccc2n1C1CCN(CCCNc2ccc(F)cc2)CC1", "melting point": "121 to 124"},
      {"smiles": "COc1cccc([C@H]2O[C@H](CC(=O)Nc3nc(C)c(C(=O)O)s3)C(=O)N(CC(C)(C)CO)c3ccc(Cl)cc32)c1OC", "melting point": "251 to 252"},
      {"smiles": "CCCc1nc2c(N)nc3cccnc3c2n1CCCCS(=O)(=O)NC", "melting point": "174 to 175"},
      {"smiles": "Cc1cc(F)ccc1-c1cccc(C(=O)Nc2ccc(OCCN3CCOCC3)c3ccccc23)c1", "melting point": "95 to 97"},
      {"smiles": "COc1cc(CNC=O)ccc1O", "melting point": 83.5},
      {"smiles": "CC1(C)CCONC1=O", "melting point": "115 to 119"},
      {"smiles": "CC(=O)c1ccc(-c2ccc(S(C)(=O)=O)cc2)o1", "melting point": "160 to 164"},
      {"smiles": "CCNc1cc(Cl)nc(C#N)c1[N+](=O)[O-]", "melting point": 120},
      {"smiles": "CC(=O)c1ccc(CNC(=O)c2cccnc2Oc2cccnc2)s1", "melting point": "201 to 203"},
      {"smiles": "COc1ccc(Sc2ccccc2C(C)C)cc1", "melting point": "63 to 65"},
      {"smiles": "CCC(=O)NC1=NN(c2ccccc2)CC1", "melting point": "170 to 171"},
      {"smiles": "COc1ccc(NC(=O)CN(C(=O)CNC(=O)Nc2cccc(C)c2)c2ccccc2)cc1", "melting point": 194},
      {"smiles": "CC(C)C[C@H](NC(=O)c1ccc2c(c1)Nc1ccccc1S2)C(=O)N[C@H]1CCOC1OC(=O)N1CCOCC1", "note": "(stereo partly specified)", "melting point": "165 to 167"},
      {"smiles": "OCC1OC(n2cnc3c(NNC4COc5ccccc5C4)ncnc32)C(O)C1O", "note": "(stereo unspecified)", "melting point": "109 to 112"},
      {"smiles": "CC(=O)Nc1c(C)ccc(O)c1C", "melting point": "190 to 195"},
      {"smiles": "COc1cc(C(=O)O)ccc1Cc1cn(C)c2ccc(C(=O)N(C)CC3CCCC3)cc12", "melting point": "112 to 114"},
      {"smiles": "Cc1cccc(C)c1N(Cn1cc(C(C)C)cn1)C(=O)CCl", "melting point": 58},
      {"smiles": "NC(=NCC(F)(F)F)Nc1ccnc(SCCCNC=O)n1", "melting point": "165 to 166"},
      {"smiles": "COc1c(O)cnc(CNc2nc(C)nc(C)c2Cl)c1C", "melting point": "220 to 224"},
      {"smiles": "NC(=O)NCCNc1ccc([N+](=O)[O-])cc1Cl", "melting point": 188},
      {"smiles": "Cc1cc(-c2nnc3c4ccccc4c(OCc4ncc[nH]4)nn23)no1", "melting point": "188 to 189"},
      {"smiles": "COc1ccc2c(c1)NC1(CCN(Cc3ccccc3)CC1)c1cccn1-2", "melting point": "123 to 124"},
      {"smiles": "CN1CCN(C2=Nc3ccccc3Nc3c(Cl)cccc32)CC1", "melting point": "168 to 170"},
      {"smiles": "COc1ccc2nc(N)nc(C3CCN(C(=O)c4ccccc4)CC3)c2c1", "melting point": "172 to 173"},
      {"smiles": "CC1(C)Oc2ccc(C(F)(F)F)cc2C(n2ccccc2=O)=C1CN(O)C(=O)C(F)(F)F", "melting point": 208},
      {"smiles": "Oc1cc(Cl)c(-c2nnn[nH]2)cc1Oc1ccc(Cl)cc1Cl", "melting point": "174 to 180"},
      {"smiles": "CC(=O)OC1(C(=O)CO)CCC2C3CCC4=CC(=O)C=CC4(C)C3C(O)CC21C", "note": "(stereo unspecified)", "melting point": "223 to 224"},
      {"smiles": "Cn1cc(C(=O)NCCC2CCN(S(=O)(=O)NC(=O)NC34CC5CC(CC(C5)C3)C4)CC2)c(=O)n(C)c1=O", "melting point": "224 to 226"},
      {"smiles": "O=C(C[C@H]1CCCO1)N[C@H]1CC[C@H](CCN2CCN(c3nccc4c3CCO4)CC2)CC1", "melting point": 183},
      {"smiles": "CC12CC(N3CCOCC3)C(O)CC1CCC1C2CCC2(C)C(O)C(N3CCCC3)CC12", "note": "(stereo unspecified)", "melting point": 226},
      {"smiles": "C#CCN(C)c1nccc(Oc2ccc(NC(=O)c3cc(F)cc(N4CCCCC4)c3)c3ccccc23)n1", "melting point": "116 to 117"},
      {"smiles": "CC#Cc1cc(C)nc(Nc2ccc(F)cc2)n1", "melting point": "138 to 140"},
      {"smiles": "Cc1nc2cc(NC(=O)c3cc4cc(C(F)(F)F)cnc4n3Cc3ccncc3)ccc2s1", "melting point": "208 to 210"},
      {"smiles": "O=C(CCC(=O)N1CCC(c2ccc(Cl)cc2)CC1)c1ccc2c(c1)CNC2", "melting point": "133 to 134"},
      {"smiles": "CN(C)C(=O)c1nn(-c2cccc(F)c2)c(=O)c2c1c1ccc(Cl)cc1n2C", "melting point": "208 to 209"},
      {"smiles": "COc1ccc(C(=O)Nc2cc3c(cc2CCC2CCCCN2C)OCO3)cc1", "note": "(stereo unspecified)", "melting point": "112 to 113"},
      {"smiles": "CN(SCl)C(=O)Nc1ccc(Cl)c(Cl)c1", "melting point": "142 to 145"},
      {"smiles": "COc1cccc(Cn2cnc3c(-c4ccco4)ncnc32)c1", "melting point": "138 to 139"},
      {"smiles": "COc1ccc2[nH]c(C(=O)Nc3cc(NC(=O)OCc4ccccc4)c4ccccc4c3CCOC(C)=O)cc2c1", "melting point": "98 to 110"},
      {"smiles": "CNc1nc(Cl)ncc1[N+](=O)[O-]", "melting point": "90 to 91"},
      {"smiles": "Cc1ccc(NC(=N)c2ccccn2)cc1C", "melting point": "105 to 107"},
      {"smiles": "COc1cc2c(cc1OC)-c1cc(=Nc3c(C)cc(C)cc3C)n(C(C)C)c(=O)n1CC2", "melting point": "178 to 179"},
      {"smiles": "O=S(=O)(Nc1cc(Cl)c(Cl)c(Cl)c1)c1cc(S(=O)(=O)Nc2cc(Cl)c(Cl)c(Cl)c2)c2cc(O)ccc2c1", "melting point": "164 to 166"},
      {"smiles": "Cc1c(C)c2c(c(C)c1O)SC(CCCO)O2", "note": "(stereo unspecified)", "melting point": "116 to 117"},
      {"smiles": "CCc1nc(-c2ccc(OCCCN3CCOCC3)cc2)no1", "melting point": "52 to 53"},
      {"smiles": "CCCc1cc(C#N)sc1-c1ccc2c(c1)C(C)(C)OC(=S)N2", "melting point": "174 to 175"},
      {"smiles": "CCCCCCCCc1cnc(-c2ccc(OC)c(F)c2)nc1", "melting point": "58.7 to 59"},
      {"smiles": "O=C(O)CCc1[nH]nc2c1CCC2", "melting point": "157 to 159"},
      {"smiles": "CC(C)(C)c1ccc(C(=O)Nc2cn3nc(NC4CC4)ccc3n2)cc1", "melting point": "274 to 275"},
      {"smiles": "Brc1ccc2c(c1)COCO2", "melting point": "43 to 47"},
      {"smiles": "C#Cc1ccc(C(=O)OCC)cn1", "melting point": 35},
      {"smiles": "O=Cc1ccc(-c2ccc(Br)cc2)nc1", "melting point": "108 to 109"},
      {"smiles": "NN1CCC(Cc2ccc(Cl)cc2)CC1", "melting point": "49 to 51"},
      {"smiles": "CS(=O)(=O)c1ccc(-c2cc(C(F)(F)F)nn2-c2ccc(C#N)cc2)cc1", "melting point": "140 to 142"},
      {"smiles": "O=[N+]([O-])c1cc(-c2nc3n(c2Cl)CCCC3)c(Cl)cc1Cl", "melting point": "111 to 112"},
      {"smiles": "CS(=O)(=O)c1ccc(-c2cnn(CC(F)(F)F)c(=O)c2Oc2ccc(-c3ccccc3)cc2)cc1", "melting point": "163 to 165"}
    ]}
  ]
}
